Earlier results on one molecule are cited in patent publication US20070009558A1, “Sugar-free storage-stable antihistaminic syrups” (priority 2004, published 2007).

Where two headings read alike, the source gives them in different places.

With `Clc1ccc2c(c1)CCc1cccnc1C2=C1CCNCC1` [Desloratadine, 8-chloro-6,11-dihydro-11-(4-piperdinylidene)-5H-benzo[5,6]cyclohepta[1 ,2-b]pyridine], the solubility entry is on record as “very soluble” (in ethanol), “very soluble” (in propylene glycol) and “slightly soluble” (in water).
